IC50 data for 42 molecules are collected here from patent US12221453B2, “Substituted pyrazolo[5′,1′:2,3]pyrimido[5,4-b][1,4]oxazines as TYK2 inhibitors” (TAKEDA PHARMACEUTICAL COMPANY LIMITED, priority 2018, dated 2025).

Structures are written as SMILES.

For this test, the system named is IL-12 induced STAT4 phosphorylation mediated by TYK2/JAK2. Put plainly: IL-12 induced pSTAT4 in human PBMC. Conditions: 1 hr compound, 1.7 ng/mL IL-12 for 30 minutes. It is filed as cell-based. The method, then:
Human PBMC were isolated from buffy coat and are stored frozen for assays as needed. […] 15 μL of compound or DMSO was added to the well at the desired concentrations and incubated at 1 hr at 37° C. 15 μL of stimulus (final concentration of 1.7 ng/mL IL-12) was added for 30 minutes prior to pSTAT4 and total STAT4 analysis using cell lysates prepared and analyzed by MSD reagents as per manufacturer protocol. The final DMSO concentration of compound in the assay was 0.1%. The IL-12 induced pSTAT4 assay evaluates the inhibition of IL-12 induced STAT4 phosphorlyation mediated by TYK2/JAK2 ([…] complex).
By IC50 is commonly meant the midpoint of a concentration-inhibition curve. Turning to `CNc1cc(-c2cnc3n(CC(C)(C)O)cccc2-3)nc2c(C(=O)N[C@H]3CC[C@@H]3OC)cnn12` [Compound I-983], the IC50 was below 0.1 µM.
With `CNc1cc(Nc2cccn([C@H]3CC[C@@H](OC)CC3)c2=O)nc2c(C(=O)N[C@@H]3CC[C@@]3(C)OC)cnn12` [Compound I-431], the IC50 was below 0.1 µM.
For `CNc1ccc(-c2cc(NC)n3ncc(C(=O)NC4CC[C@H]4O)c3n2)n2ccnc12` (stereo partly drawn) [Compound I-484] the value was below 0.1 µM; for `CNc1cc(-c2cn(CC(=O)N(C)C)c3ncccc23)nc2c(C(=O)N[C@H]3CC[C@@H]3OC)cnn12` [Compound I-921], below 0.1 µM; for `CNc1cc(Nc2cccn([C@@H]3C[C@H]3F)c2=O)nc2c(C(=O)NC3CCC3(F)F)cnn12` (stereo partly drawn) [Compound I-274], below 0.1 µM.
Next, `CNc1cc(Nc2cccn([C@H]3[C@@H]4COC[C@@H]43)c2=O)nc2c(C(=O)NC3CCC3(F)F)cnn12` (stereo partly drawn) [Compound I-306]: below 0.1 µM; `CNc1cc(Nc2cccn([C@@H]3C[C@H]3F)c2=O)nc2c(C(=O)N[C@@H]3CCC3(F)F)cnn12` [Compound I-276]: below 0.1 µM; `CNc1cc(-c2cnc3n([C@H]4COC[C@@H]4OC)cccc2-3)nc2c(C(=O)N[C@H]3CC[C@@H]3F)cnn12` [Compound I-833]: below 0.1 µM.
Take `CNc1cc(-c2cn([C@@H]3CCOC[C@@H]3OC)c3ncccc23)nc2c(C(=O)NC3CC[C@@H]3OC)cnn12` (stereo partly drawn) [Compound I-668]: the IC50 was below 0.1 µM.
Next, `CNc1cc(Nc2cccn([C@H]3C[C@@H](OC)C3)c2=O)nc2c(C(=O)N[C@H]3CC[C@@H]3OC)cnn12` [Compound I-253]: below 0.1 µM.
The molecule `CNc1cc(Nc2cccn([C@H]3[C@@H]4COC[C@@H]43)c2=O)nc2c(C(=O)N[C@@H]3C[C@H]3OC)cnn12` [I-25, 5-((1-((1R,5S,6r)-3-Oxabicyclo[3.1.0]hexan-6-yl)-2-oxo-1,2-dihydropyridin-3-yl)amino)-N-((1R,2R)-2-methoxycyclopropyl)-7-(methylamino)pyrazolo[1,5-a]pyrimidine-3-carboxamide] registered an IC50 below 0.1 µM.
The molecule `O=C(N[C@@H]1C[C@@H]1F)c1cnn2c3c(c(Nc4cccc5ocnc45)nc12)OCCN3` [Compound I-752] gave an IC50 below 0.1 µM.
The molecule `CNc1cc(Nc2cccn(C3CCOCC3)c2=O)nc2c(C(=O)N[C@H]3CC[C@]3(C)O)cnn12` [Compound I-349] had an IC50 below 0.1 µM.
`CNc1cc(-c2cn(C3CN(C)C3)c3ncccc23)nc2c(C(=O)NC3CC[C@@H]3F)cnn12` (stereo partly drawn) [Compound I-513] came in with an IC50 below 0.1 µM.
As to `CNc1cc(-c2cnc3n(CC(=O)N4CCC4)cccc2-3)nc2c(C(=O)N[C@H]3CC[C@@H]3OC)cnn12` [Compound I-977], the IC50 was above 1 µM.
Next, `CNc1cc(Nc2cccn([C@H]3CCC[C@H](OC)C3)c2=O)nc2c(C(=O)N[C@H]3CC[C@@H]3F)cnn12` [Compound I-231]: below 0.1 µM; `CNc1cc(-c2cn([C@H]3CCOC[C@H]3OC)c3ncccc23)nc2c(C(=O)N[C@H]3CC[C@@H]3F)cnn12` [Compound I-796]: below 0.1 µM; `CNc1cc(-c2cn([C@@H]3COC[C@H]3O)c3ncccc23)nc2c(C(=O)N[C@H]3CCC3(F)F)cnn12` [Compound I-693]: below 0.1 µM.
`CNc1cc(-c2cnc3n([C@@H]4COC[C@H]4O)cccc2-3)nc2c(C(=O)N[C@@H]3CC[C@H]3OC)cnn12` [Compound I-876] gave an IC50 below 0.1 µM.
`CNc1cc(-c2cn([C@H]3COC[C@@H]3OC)c3ccccc23)nc2c(C(=O)N[C@H]3CC[C@H]3O)cnn12` [Compound I-790] returned an IC50 below 0.1 µM.
On to `CNc1cc(-c2cn([C@@H]3CC3(F)F)c3ncccc23)nc2c(C(=O)N[C@H]3CC[C@H]3O)cnn12` [Compound I-549], for which the IC50 is below 0.1 µM.
`CNc1cc(-c2cn([C@H]3C[C@@H](O)C3)c3ncccc23)nc2c(C(=O)NC3CC[C@@H]3F)cnn12` (stereo partly drawn) [Compound I-510] had a 50% inhibitory concentration (IC50) below 0.1 µM.
`CNc1cc(Nc2cccn([C@@H]3CCC[C@@H](OC)C3)c2=O)nc2c(C(=O)N[C@H]3CC[C@@H]3F)cnn12` [Compound I-228] displayed an IC50 below 0.1 µM.
In turn, `CNc1cc(-c2cn([C@H]3COC[C@@H]3OC)c3ncccc23)nc2c(C(=O)N[C@H]3CC[C@@H]3OC)cnn12` [Compound I-634] showed an IC50 below 0.1 µM.
Take `CNc1cc(Nc2cccn(C3CCOCC3)c2=O)nc2c(C(=O)NC3CC[C@@H]3F)cnn12` (stereo partly drawn) [Compound I-188]: the IC50 was below 0.1 µM.
Consider `CNc1cc(Nc2cccn([C@@H]3CCCC[C@@H]3O)c2=O)nc2c(C(=O)NC3CC[C@@H]3F)cnn12` (stereo partly drawn) [Compound I-209], for which the IC50 is below 0.1 µM.
`CNc1cc(-c2cn(C3CN(C)C3)c3ncccc23)nc2c(C(=O)N[C@H]3CC[C@@H]3F)cnn12` [Compound I-514] returned an IC50 below 0.1 µM.
Consider `CNc1cc(Nc2cccn(-c3ccc(C)nc3)c2=O)nc2c(C(=O)N[C@H]3CCC3(F)F)cnn12` [Compound I-325], for which the IC50 is below 0.1 µM.
As to `CNc1cc(-c2cnc3n([C@@H]4COC[C@H]4O)cccc2-3)nc2c(C(=O)NC3CC3)cnn12` [Compound I-817], the IC50 was below 0.1 µM.
Next, `CNc1cc(Nc2cccn(-c3ccccn3)c2=O)nc2c(C(=O)N[C@@H]3CC[C@H]3OC)cnn12` [Compound I-264]: below 0.1 µM; `CNc1cc(Nc2cccn([C@H]3CCCOC3)c2=O)nc2c(C(=O)N[C@H]3CC[C@@H]3F)cnn12` [Compound I-198]: below 0.1 µM; `CNc1cc(-c2cn([C@@H]3CN(C)C[C@H]3F)c3ncccc23)nc2c(C(=O)N[C@H]3CC[C@@H]3OC)cnn12` [Compound I-643]: below 0.1 µM.
`CNc1cc(-c2cn([C@@H]3COC[C@@H]3F)c3ncccc23)nc2c(C(=O)NC3CC[C@@H]3OC)cnn12` (stereo partly drawn) [Compound I-621] showed an IC50 below 0.1 µM.
On to `CNc1cc(-c2cn([C@H]3CCOC[C@@H]3OC)c3ncccc23)nc2c(C(=O)N[C@H]3CC[C@@H]3OC)cnn12` [Compound I-663], for which the IC50 is below 0.1 µM.
`CNc1cc(Nc2cccn([C@@H]3CCC[C@](C)(OC)C3)c2=O)nc2c(C(=O)N[C@@H]3C[C@@H]3F)cnn12` [Compound I-131]: the half-inhibitory concentration (IC50) is below 0.1 µM.
Next, `CNc1cc(-c2cn([C@H]3COC[C@@H]3OC)c3ccccc23)nc2c(C(=O)NC3CC[C@@H]3OC)cnn12` (stereo partly drawn) [Compound I-741]: below 0.1 µM; `CNc1cc(Nc2cccn([C@H]3C[C@@H]3F)c2=O)nc2c(C(=O)NC3CCC3(F)F)cnn12` (stereo partly drawn) [Compound I-277]: below 0.1 µM; `CNc1cc(-c2cnc3n([C@H]4CN(C)C[C@@H]4OC)cccc2-3)nc2c(C(=O)N[C@H]3CC[C@@H]3OC)cnn12` [Compound I-947]: below 0.1 µM.
With `CNc1cc(Nc2cccn([C@H]3CCCOC3)c2=O)nc2c(C(=O)NC3CC[C@@H]3F)cnn12` (stereo partly drawn) [Compound I-197], the IC50 was below 0.1 µM.
In turn, `CNc1cc(-c2cnc3n([C@H]4CCOC[C@@H]4O)cccc2-3)nc2c(C(=O)NC3CC3)cnn12` [Compound I-819] had an IC50 below 0.1 µM.
`CNc1cc(Nc2cccn([C@@H]3C[C@H]3F)c2=O)nc2c(C(=O)N[C@@H]3C[C@H]3OC)cnn12` [Compound I-135] displayed an IC50 below 0.1 µM.
Molecule `CNc1cc(Nc2cccn([C@@H]3CCC[C@@H]3O)c2=O)nc2c(C(=O)N[C@@H]3CC[C@H]3F)cnn12` [Compound I-181] showed an IC50 below 0.1 µM.
